Laboratory results as given in ChEMBL document CHEMBL1133054, “Noncovalent thrombin inhibitors incorporating an imidazolylethynyl P1” (Bioorg Med Chem Lett, 2000).

Legend:
[1] = target: Prothrombin (Homo sapiens, UniProt P00734); test: In vitro inhibition of human thrombin.
[2] = Peak plasma concentration (Cmax) was determined; format: ADME, organism-based; details: rat
[3] = target: T1, Serine protease 1 (Bos taurus, UniProt P00760); test: Inhibitory activity against Bovine Trypsin
T1 sequence (P00760 whole entry): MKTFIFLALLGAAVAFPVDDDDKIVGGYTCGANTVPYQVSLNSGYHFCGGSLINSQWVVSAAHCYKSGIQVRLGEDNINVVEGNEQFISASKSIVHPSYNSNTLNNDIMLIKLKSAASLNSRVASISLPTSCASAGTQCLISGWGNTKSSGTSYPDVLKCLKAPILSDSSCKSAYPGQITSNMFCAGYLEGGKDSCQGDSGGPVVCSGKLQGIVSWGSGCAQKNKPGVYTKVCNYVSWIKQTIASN

[4] = Maximum time (Tmax) required to reach Cmax in rats; format: ADME, organism-based; details: rat, in vivo
[5] = Area under curve (AUC) at a dose of […] mg/kg in rats; format: ADME, organism-based; details: rat, in vivo, 30 mg/kg
[6] = Peak plasma concentration (Cmax) in rats; format: ADME, organism-based; details: rat
[7] = system: Rattus norvegicus; test: Oral bioavailability; format: ADME, organism-based; details: in vivo
[8] = Area under curve at a dose of 10 mg/kg; format: ADME, organism-based; set-up: dose 10 mg/kg; details: in vivo
[9] = Plasma Clearance was determined; format: ADME, organism-based; details: rat
[10] = Bioavailability; format: ADME, organism-based; details: eutheria, in vivo
[11] = Area under curve at a dose of 30 mg/kg; format: ADME, organism-based; set-up: dose 30 mg/kg; details: rat, in vivo
[12] = Half life (t1/2) was determined; format: ADME, organism-based; details: rat, in vivo

| Structure (SMILES) | Ki [1] [µM] | Ki [3] [µM] | also measured |
| --- | --- | --- | --- |
| NS(=O)(=O)N[C@@H](C(=O)N1CCC[C@H]1C(=O)NCC#Cc1c[nH]cn1)C(c1ccccc1)c1ccccc1 | 0.0008 | 18 | – |
| CC(C)(C)OC(=O)N[C@H](Cc1ccccc1)C(=O)N1CCC[C@H]1C(=O)NCC#Cc1ccncc1 | > 20 | – | – |
| CC(C)(C)OC(=O)N[C@H](Cc1ccccc1)C(=O)N1CCC[C@H]1C(=O)NCC#Cc1cn[nH]c1 | 5.4 | – | – |
| O=C(O)CN[C@@H](C(=O)N1CCC[C@H]1C(=O)NCC#Cc1cnc[nH]1)C(c1ccccc1)c1ccccc1 | 0.044 | 47 | Cmax [2]: 1600 nM |
| O=C(NCC#Cc1cnc[nH]1)[C@@H]1CCCN1C(=O)[C@H](NS(=O)(=O)Cc1ccccc1)C(c1ccccc1)c1ccccc1 | 0.003 | 24 | – |
| NC1CCC(CNC(=O)[C@@H]2CCCN2C(=O)[C@H](N)C(c2ccccc2)c2ccccc2)CC1 (stereo not given in full) | – | – | F [7]: Oral bioavailability |
| CC(C)(C)OC(=O)N[C@@H](C(=O)N1CCC[C@H]1C(=O)NCC#Cc1cnc[nH]1)C(C1CCCCC1)C1CCCCC1 | 0.029 | 30 | – |
| CN(C(=O)[C@H](Cc1ccc(C(=N)NN)cc1)NS(=O)(=O)c1ccc2ccccc2c1)C1CCCC1 | – | 33 | – |
| NC1CCC(CNC(=O)[C@@H]2CCCN2C(=O)[C@H](NS(=O)(=O)Cc2ccccc2)C(c2ccccc2)c2ccccc2)CC1 (stereo not given in full) | – | – | F [7]: Oral bioavailability |
| CS(=O)(=O)N[C@@H](C(=O)N1CCC[C@H]1C(=O)NCC#Cc1c[nH]cn1)C(c1ccccc1)c1ccccc1 | 0.0026 | 14 | – |
| O=C(O)CN[C@H](CC1CCCCC1)C(=O)N1CCC[C@H]1C(=O)NCC#Cc1cnc[nH]1 | 0.48 | – | Cmax [2]: 1600 nM |

More lines, main results first:

| Ki [1] [µM] | Ki [3] [µM] | Structure (SMILES) | also measured |
| --- | --- | --- | --- |
| 0.208 | – | CC(=O)N[C@@H](C(=O)N1CCC[C@H]1C(=O)NCC#Cc1cnc[nH]1)C(c1ccccc1)c1ccccc1 | Cmax [2]: 1600 nM |
| 0.015 | 30 | COC(=O)N[C@@H](C(=O)N1CCC[C@H]1C(=O)NCC#Cc1c[nH]cn1)C(C1CCCCC1)C1CCCCC1 | – |
| – | 50 | CC(C)(C)OC(=O)N[C@@H](C(=O)N1CCC[C@H]1C(=O)NCC#Cc1c[nH]cn1)C(c1ccccc1)c1ccccc1 | Tmax [4]: 1 h; AUC [5]: 29 µM·h; Cmax [6]: 14600 nM |
| 0.014 | 24 | COC(=O)N[C@@H](C(=O)N1CCC[C@H]1C(=O)NCC#Cc1c[nH]cn1)C(c1ccccc1)c1ccccc1 | AUC [8]: 26 µM·h; clearance [9]: 12.8 mL/min/kg; bioavailability [10]: 58%; AUC [11]: 46 µM·h; Tmax [4]: 1 h; half-life [12]: 0.667 h; Cmax [2]: 23600 nM |
| 5.5 | – | Cn1cncc1C#CCNC(=O)[C@@H]1CCCN1C(=O)[C@@H](Cc1ccccc1)NC(=O)OC(C)(C)C | – |
| > 20 | – | CC(C)(C)OC(=O)N[C@H](Cc1ccccc1)C(=O)N1CCC[C@H]1C(=O)NCC#Cc1ccc(N)nc1 | – |
| 1.2 | – | CC(C)(C)OC(=O)N[C@H](Cc1ccccc1)C(=O)N1CCC[C@H]1C(=O)NCC#Cc1cnc[nH]1 | – |
| 0.012 | 25 | N[C@@H](C(=O)N1CCC[C@H]1C(=O)NCC#Cc1cnc[nH]1)C(c1ccccc1)c1ccccc1 | – |
